Patent US20080207505A1, “Bna Conjugates and Methods of Use” (priority 2005, published 2008)

System: normal dogs
Assay: Oral administration of hBNP-021 versus native hBNP in normal dogs (randomized crossover)
Details: dog, oral 350 ug/kg
Experimental: Immediately prior to oral dosing, the powder (either hBNP or hBNP conjugate) was dissolved in a buffered formulation to a concentration of 1.25 mg/mL.
MAP and blood samplings were repeated at 10, 30, 60, 120, 180, and 240 minutes after oral administration. Blood samples were collected in pre-chilled EDTA tubes and immediately placed on ice and centrifuged at −4° C. Plasma was stored at −80° C. until analysis. After extraction, plasma cANP, cBNP, hBNP and cGMP were assessed by radioimmunoassay as previously described (Saito, Y. et al. 1989; Kambayashi, Y. et al, 1990).
Results are expressed as mean ±SEM. Data were assessed by 1-way ANOVA for comparisons within groups followed by post hoc Dunnett's test. Two-way ANOVA was used for comparisons between groups, followed by Bonferroni posttest. Student's paired t test was performed for single comparisons between groups (Graph-Pad Prism software 4.0). Statistical significance was accepted at a value of P<0.05.

## CC[C@H](C)[C@@H]1NC(=O)[C@H](CCCNC(=N)N)NC(=O)[C@H](CC(=O)O)NC(=O)[C@H](CCSC)NC(=O)[C@H](CCCCN)NC(=O)[C@H](CCCNC(=N)N)NC(=O)CNC(=O)[C@H](Cc2ccccc2)NC(=O)[C@@H](NC(=O)CNC(=O)[C@H](CO)NC(=O)CNC(=O)[C@H](CCC(N)=O)NC(=O)[C@@H](NC(=O)[C@H](CCSC)NC(=O)[C@H](CCCCN)NC(=O)[C@@H]2CCCN2C(=O)[C@@H](N)CO)C(C)C)CSSC[C@@H](C(=O)N[C@@H](CCCCN)C(=O)N[C@H](C(=O)N[C@@H](CC(C)C)C(=O)N[C@@H](CCCN=C(N)N)C(=O)N[C@@H](CCCN=C(N)N)C(=O)N[C@@H](Cc2cnc[nH]2)C(=O)O)C(C)C)NC(=O)CNC(=O)[C@H](CC(C)C)NC(=O)CNC(=O)[C@H](CO)NC(=O)[C@H](CO)NC(=O)[C@H](CO)NC(=O)[C@H](CO)NC1=O [Native hBNP, reference compound]
  plasma hBNP after oral administration: detected in lower levels
